Measurements taken from ChEMBL document CHEMBL3875175, “Multi-targeting exploration of new 2-aminothiazolyl quinolones: Synthesis, antimicrobial evaluation, interaction with DNA, combination with topoisomerase IV and penetrability into cells” (Eur J Med Chem, 2016).
Converted amounts (≈) assume the structure as drawn.

What was measured:
[1] = Antifungal activity against Candida utilis after 24 hrs by two fold serial dilution method; type: functional; conditions: Cyberlindnera jadinii
Aspergillus flavus = assay: Antifungal activity against Aspergillus flavus after 24 hrs by two fold serial dilution method; type: functional
Escherichia coli [2] = assay: Antibacterial activity against Escherichia coli DH52 after 24 hrs by two fold serial dilution method; type: functional; conditions: DH52, 24 h
Candida albicans = assay: Antifungal activity against Candida albicans ATCC 76615 after 24 hrs by two fold serial dilution method; type: functional; conditions: ATCC 76615, 24 h
Staphylococcus aureus [3] = assay: Antibacterial activity against Staphylococcus aureus ATCC 25923 after 24 hrs by two fold serial dilution method; type: functional; conditions: ATCC 25923, 24 h
Proteus vulgaris = assay: Antibacterial activity against Bacillus proteus ATCC 13315 after 24 hrs by two fold serial dilution method; type: functional; conditions: ATCC 13315, 24 h
Shigella dysenteriae [4] = assay: Antibacterial activity against Shigella dysenteriae after 24 hrs by two fold serial dilution method; type: functional
Saccharomyces cerevisiae = assay: Antifungal activity against Beer yeast after 24 hrs by two fold serial dilution method; type: functional
Salmonella typhi = assay: Antibacterial activity against Bacillus typhi after 24 hrs by two fold serial dilution method; type: functional, Salmonella enterica subsp. enterica serovar Typhi; conditions: Salmonella enterica
Escherichia coli [5] = assay: Antibacterial activity against Escherichia coli JM109 after 24 hrs by two fold serial dilution method; type: functional; conditions: JM109, 24 h
Bacillus spizizenii = assay: Antibacterial activity against Bacillus subtilis ATCC 6633 after 24 hrs by two fold serial dilution method; type: functional; conditions: ATCC 6633, 24 h
Pseudomonas aeruginosa = assay: Antibacterial activity against Pseudomonas aeruginosa ATCC 27853 after 24 hrs by two fold serial dilution method; type: functional; conditions: ATCC 27853, 24 h
Micrococcus luteus = assay: Antibacterial activity against Micrococcus luteus ATCC 4698 after 24 hrs by two fold serial dilution method; type: functional; conditions: NCTC 2665, 24 h
[6] = Antifungal activity against Candida mycoderma after 24 hrs by two fold serial dilution method; type: functional; conditions: Pichia norvegensis
Staphylococcus aureus [7] = assay: Antibacterial activity against methicillin-resistant Staphylococcus aureus N315 after 24 hrs by two fold serial dilution method; type: functional; conditions: N315, 24 h
Shigella dysenteriae [8] = assay: Potency index, ratio of norfloxacin MIC to compound MIC for Shigella dysenteriae; type: functional
Shigella dysenteriae [9] = assay: Potency index, ratio of chloromycin MIC to compound MIC for Shigella dysenteriae; type: functional

Row | Structure (SMILES) | MIC80 [1] [µg/mL] | MIC80 (Aspergillus flavus) [µg/mL] | MIC (Escherichia coli [2]) [µg/mL] | MIC80 (Candida albicans) [µg/mL] | MIC (Staphylococcus aureus [3]) [µg/mL] | MIC (Proteus vulgaris) [µg/mL] | MIC (Shigella dysenteriae [4]) [µg/mL] | MIC80 (Saccharomyces cerevisiae) [µg/mL] | MIC (Salmonella typhi) [µg/mL] | MIC (Escherichia coli [5]) [µg/mL] | MIC (Bacillus spizizenii) [µg/mL] | MIC (Pseudomonas aeruginosa) [µg/mL] | MIC (Micrococcus luteus) [µg/mL] | MIC80 [6] [µg/mL] | MIC (Staphylococcus aureus [7]) [µg/mL] | Ratio (Shigella dysenteriae [8]) | Ratio (Shigella dysenteriae [9])
1 | Nc1ncc(-c2cn(Cc3ccccc3F)c3c(F)cc(F)cc3c2=O)s1 | 128 (≈ 330 µM) | 32 (≈ 82.6 µM) | 64 (≈ 165 µM) | 64 (≈ 165 µM) | 32 (≈ 82.6 µM) | 128 (≈ 330 µM) | 32 (≈ 82.6 µM) | 64 (≈ 165 µM) | 8 (≈ 20.7 µM) | 64 (≈ 165 µM) | 64 (≈ 165 µM) | 128 (≈ 330 µM) | 64 (≈ 165 µM) | 64 (≈ 165 µM) | 64 (≈ 165 µM) |  | 
2 | CCCCCCCCCCCCn1cc(-c2cnc(N)s2)c(=O)c2cc(F)cc(F)c21 | 64 (≈ 143 µM) | 256 (≈ 572 µM) | 256 (≈ 572 µM) | 128 (≈ 286 µM) | 512 (≈ 1140 µM) | 256 (≈ 572 µM) | 128 (≈ 286 µM) | 128 (≈ 286 µM) | 64 (≈ 143 µM) | 128 (≈ 286 µM) | 64 (≈ 143 µM) | 32 (≈ 71.5 µM) | 128 (≈ 286 µM) | 32 (≈ 71.5 µM) | 128 (≈ 286 µM) |  | 
3 | CCCCCCCCCCn1cc(-c2cnc(N)s2)c(=O)c2cc(F)cc(F)c21 | 128 (≈ 305 µM) | 64 (≈ 153 µM) | 64 (≈ 153 µM) | 64 (≈ 153 µM) | 512 (≈ 1220 µM) | 128 (≈ 305 µM) | 64 (≈ 153 µM) | 64 (≈ 153 µM) | 256 (≈ 610 µM) | 64 (≈ 153 µM) | 256 (≈ 610 µM) | 64 (≈ 153 µM) | 128 (≈ 305 µM) | 64 (≈ 153 µM) | 256 (≈ 610 µM) |  | 
4 | Nc1ncc(-c2cn(Cc3ccc([N+](=O)[O-])cc3)c3c(F)cc(F)cc3c2=O)s1 | 256 (≈ 618 µM) | 64 (≈ 154 µM) | 32 (≈ 77.2 µM) | 32 (≈ 77.2 µM) | 256 (≈ 618 µM) | 128 (≈ 309 µM) | 256 (≈ 618 µM) | 64 (≈ 154 µM) | 64 (≈ 154 µM) | 128 (≈ 309 µM) | 128 (≈ 309 µM) | 64 (≈ 154 µM) | 128 (≈ 309 µM) | 128 (≈ 309 µM) | 128 (≈ 309 µM) |  | 
5 | CCCn1cc(-c2cnc(N)s2)c(=O)c2cc(F)cc(F)c21 | 64 (≈ 199 µM) | 32 (≈ 99.6 µM) | 64 (≈ 199 µM) | 32 (≈ 99.6 µM) | 16 (≈ 49.8 µM) | 64 (≈ 199 µM) | 4 (≈ 12.4 µM) | 16 (≈ 49.8 µM) | 16 (≈ 49.8 µM) | 64 (≈ 199 µM) | 32 (≈ 99.6 µM) | 16 (≈ 49.8 µM) | 16 (≈ 49.8 µM) | 32 (≈ 99.6 µM) | 32 (≈ 99.6 µM) | 4 | 4
6 | Nc1ncc(-c2cn(Cc3ccc(F)cc3)c3c(F)cc(F)cc3c2=O)s1 | 64 (≈ 165 µM) | 32 (≈ 82.6 µM) | 32 (≈ 82.6 µM) | 32 (≈ 82.6 µM) | 32 (≈ 82.6 µM) | 64 (≈ 165 µM) | 4 (≈ 10.3 µM) | 32 (≈ 82.6 µM) | 16 (≈ 41.3 µM) | 16 (≈ 41.3 µM) | 128 (≈ 330 µM) | 64 (≈ 165 µM) | 16 (≈ 41.3 µM) | 16 (≈ 41.3 µM) | 16 (≈ 41.3 µM) |  | 
7 | O=C(N[C@H](CO)[C@H](O)c1ccc([N+](=O)[O-])cc1)C(Cl)Cl [CHLORAMPHENICOL] |  |  | 32 (≈ 99 µM) |  | 16 (≈ 49.5 µM) | 32 (≈ 99 µM) | 16 (≈ 49.5 µM) |  | 32 (≈ 99 µM) | 32 (≈ 99 µM) | 32 (≈ 99 µM) | 32 (≈ 99 µM) | 8 (≈ 24.8 µM) |  | 16 (≈ 49.5 µM) |  | 
8 | CCCCCn1cc(-c2cnc(N)s2)c(=O)c2cc(F)cc(F)c21 | 64 (≈ 183 µM) | 16 (≈ 45.8 µM) | 32 (≈ 91.6 µM) | 64 (≈ 183 µM) | 256 (≈ 733 µM) | 64 (≈ 183 µM) | 16 (≈ 45.8 µM) | 128 (≈ 366 µM) | 16 (≈ 45.8 µM) | 64 (≈ 183 µM) | 64 (≈ 183 µM) | 16 (≈ 45.8 µM) | 128 (≈ 366 µM) | 32 (≈ 91.6 µM) | 32 (≈ 91.6 µM) |  | 
9 | OC(Cn1cncn1)(Cn1cncn1)c1ccc(F)cc1F [FLUCONAZOLE] | 8 (≈ 26.1 µM) | 256 (≈ 836 µM) |  | 1 (≈ 3.27 µM) |  |  |  | 16 (≈ 52.2 µM) |  |  |  |  |  | 4 (≈ 13.1 µM) |  |  | 
